In patent US20100160178A1, “SYSTEM AND METHOD FOR PRESENTING DNA BINDING SPECIFICITIES USING SPECIFICITY LANDSCAPES” (priority 2008, published 2010):

How the values were obtained:
[1] = test system: every possible 9-mer DNA sequence; test: CSI array and specificity landscape of Nkx-2.5; assay type: binding
Source text: (§1) CSI arrays can display the entire sequence space for about 2-10 variable base pair positions. Additionally, CSI arrays can display the entire sequence space for more than 10 base pair positions. Data relating to the binding affinities between the binding molecule and a sample set of DNA sequences (“N-mers”) has been obtained from the CSI DNA microarrays, in which every N-mer sequence is correlated to a fluorescent intensity value. The fluorescent intensity value indicates the amount of interaction between a specific N-mer and the DNA-binding molecule of interest and is proportional to binding affinity. The affinity value is the form of an equilibrium association constant (KA), or a KD value may be converted to KA by the relationship of KA=1/KD. Any biochemical/biophysical technique, other than DNA microarrays, can be used to obtain binding affinities, but these affinities must be related to a specific DNA sequence to be appropriate input for the specificity landscape.
The cognate site identifier array is a high through put approach for providing a comprehensive profile of the binding properties of DNA-binding molecules. CSI arrays display every permutation of a duplex DNA sequence on a microfabricated array. […]

DNA sequences = test: Specificity landscapes of DNA-binding proteins (FIGS. 8-10); details: circular specificity landscape
[2] = test system: duplex DNA microarray that displays the entire sequence space; test: CSI (cognate site identifier) array and specificity landscape of the polyamide; assay type: binding
Source text: as §1
This particular approach is an example of the data input to the specificity landscape algorithm. In particular, the present approach provides a comprehensive and unbiased understanding of the sequence-specificity of DNA binding molecules. Structural DNA variants are all examined to explore the importance of DNA structure on cognate site recognition by these ligands (data not shown). This particular example examines sequences and structural preferences of a small molecule polyamide (ImImPy*Py-γ-PyPyPyPy-β-Dp) designed to recognize the sequence 5′-W-W-G-G-W-W-W-3′ (W=A or T). […] The more distorted, or non-duplex, the DNA becomes the less affinity the polyamide has for that particular DNA sequence. Based upon previous knowledge of this polyamide, the specificity landscape unexpectedly uncovered unique insight into the polyamide relating to sequence and structural specificity of the polyamide-DNA interactions. […] The relative affinity of a particular sequence is represented by the height of the peak. The landscape provides a valuable tool to researchers looking for both the consensus sequences as well as those with the highest affinity.
Each sequence on the array is given a z-score which indicates the probability of a sequence being preferentially bound by the polyamide. As such, each sequence on the array has an intensity denoting the affinity of the polyamide to the sequence. The z-score is calculated using Equation Set 1. The sequences in the highest z-score bins, or with the highest intensities, fit the 5′-W-W-G-G-W-W-W-3′
Z=|intensity−average|/standard deviation Equation Set 1
The cognate site identifier array is a high through put approach for providing a comprehensive profile of the binding properties of DNA-binding molecules. CSI arrays display every permutation of a duplex DNA sequence on a microfabricated array. The CSI is a standard type array where each square (microarray feature) is assigned a specific nucleotide sequence, which includes a linker and a palindromic sequence with a 3-5 nucleotide turn in the middle. This palindromic sequence forms a double-stranded DNA region comprised of, for example, 8 base pairs that represents a specific permutation of an 8mer sequence. The central region of the sequence is buried, by example all or a subset of, 8 base pairs for a given 8-mer sequence. Approximately one million of the same sequences are provided for each square, each being one of the possible 8-mer sequences. A fluorescently labeled compound or antibody is included. […]

## Nkx-2.5: Nk2 transcription factor related, locus 5; earliest heart lineage marker; mouse DNA-binding protein
[1]
  DNA binding motif from specificity landscape: TNAAGTG and NTAAGTG
[1]; relative intensities, all possible 9-mers
  binding of sequences identical to motif TTAAGTG: bind well

## gata4: mouse protein gata4
DNA sequences
  DNA sequence bound: 5′-WGATAA-3′

## ImImPy*Py-γ-PyPyPyPy-β-Dp [polyamide]
[2]
  base preference at position 5: prefers a T at position 5
[2]; B-form duplex vs structural DNA variants
  DNA conformer preference: prefers double-stranded DNA
[2]; innermost ring (Ring 1) of landscape
  affinity across permutations of the consensus motif WWGGWWW: does not bind all the permutations of the consensus motif (WWGGWWW) with equal affinity
[2]; one mismatch ring
  positions of the motif where mutations are tolerated: tolerates mutations at positions 1 and 3
[2]; relative to the duplex
  binding to non-B-form DNA bearing high affinity sequences: appreciable binding

B1: msn2: yeast protein msn2 (protein, UniProt P33748 1-704, looked up)
Zinc finger protein MSN2: MTVDHDFNSEDILFPIESMSSIQYVENNNPNNINNDVIPYSLDIKNTVLDSADLNDIQNQETSLNLGLPPLSFDSPLPVTETIPSTTDNSLHLKADSNKNRDARTIENDSEIKSTNNASGSGANQYTTLTSPYPMNDILYNMNNPLQSPSPSSVPQNPTINPPINTASNETNLSPQTSNGNETLISPRAQQHTSIKDNRLSLPNGANSNLFIDTNPNNLNEKLRNQLNSDTNSYSNSISNSNSNSTGNLNSSYFNSLNIDSMLDDYVSSDLLLNDDDDDTNLSRRRFSDVITNQFPSMTNSRNSISHSLDLWNHPKINPSNRNTNLNITTNSTSSSNASPNTTTMNANADSNIAGNPKNNDATIDNELTQILNEYNMNFNDNLGTSTSGKNKSACPSSFDANAMTKINPSQQLQQQLNRVQHKQLTSSHNNSSTNMKSFNSDLYSRRQRASLPIIDDSLSYDLVNKQDEDPKNDMLPNSNLSSSQQFIKPSMILSDNASVIAKVATTGLSNDMPFLTEEGEQNANSTPNFDLSITQMNMAPLSPASSSSTSLATNHFYHHFPQQGHHTMNSKIGSSLRRRKSAVPLMGTVPLTNQQNNISSSSVNSTGNGAGVTKERRPSYRRKSMTPSRRSSVVIESTKELEEKPFHCHICPKSFKRSEHLKRHVRSVHSNERPFACHICDKKFSRSDNLSQHIKTHKKHGDI
DNA sequences
  DNA sequence bound: 5′-ARGGG-3′
